Assay results from paper PMC6130489, “Caffeic acid methyl and ethyl esters exert potential antidiabetic effects on glucose and lipid metabolism in cultured murine insulin-sensitive cells through mechanisms implicating activation of AMPK” (Pharmaceutical Biology, 2017).

What was measured:
Akt = experiment: Western immunoblot phospho-Akt in H4IIE cells; type: cell-based, rat; conditions: 50 μM, 18 h
Protocol: (§1) L6 cells myotubes, H4IIE cells and 3T3-L1 adipocytes were treated with either CAME, CAEE (50 μM each) or vehicle (DMSO) for 18 h. Insulin (100 nM) or aminoimidazole carboxamide ribonucleotide (AICAR; 1 mM) were added to some vehicle-treated wells 30 min prior to the end of the treatment and served as the positives controls. Protein content was assayed by the bicinchoninic acid method (Thermo Scientific Pierce Protein Research, Rockford, IL) standardized to bovine serum albumin. Western immunoblotting was performed as described elsewhere (Eid et al. [2010]). […] Immunoreactive bands were visualized by enhanced chemiluminescence and quantified by the Scion Image program (Scion Corporation, Frederick, MD). […]
Figure 2. […] (A) H4IIE hepatocytes were treated for 16 h with several concentrations (12.5, 25, 50 and100 μM) of either CAME or CAEE and G6Pase activity was determined colorimetrically using a commercial glucose assay kit as described under Materials and Methods. […] (D) Data are expressed as phospho-AMPK/pan-AMPK and are given as mean ± SEM from 3 experiments. *p < 0.05 indicates a significant difference, **(p < 0.01), ***(p < 0.001) from the vehicle control group.

PPAR-γ = experiment: Western immunoblot PPAR-γ in 3T3-L1 adipocytes; type: cell-based, mouse; conditions: 100 μM (Figure 4 legend)
Protocol: Insulin (100 nM) or aminoimidazole carboxamide ribonucleotide (AICAR; 1 mM) were added to some vehicle-treated wells 30 min prior to the end of the treatment and served as the positives controls. Protein content was assayed by the bicinchoninic acid method (Thermo Scientific Pierce Protein Research, Rockford, IL) standardized to bovine serum albumin. Western immunoblotting was performed as described elsewhere (Eid et al. [2010]). Membranes were incubated overnight with phospho-AMPK, phospho-Akt, GLUT4, GLUT1 and β-actin antibodies (1:1000 dilution, Cell Signalling Technology, Danvers, MA), or with PPAR-γ, SREBP-1 (1:200, Santa Cruze Biotechnology, Santa Cruz, CA), followed by incubation with HRP-coupled secondary antibody (1:10,000) for 1 h. Immunoreactive bands were visualized by enhanced chemiluminescence and quantified by the Scion Image program (Scion Corporation, Frederick, MD). Experiments were repeated on 3 different passages of cells, each passage containing all conditions in parallel.
Figure 4. CAME and CAEE inhibit C/EBP-β and PPAR-γ protein expression through mechanisms implicating AMPK pathway. Shown are representative blots of 3T3-adipocytes treated with the maximum nontoxic concentration (100 μM) of either CAME or CAEE. […] Data are expressed as C/EBP-β/β-actin (D), PPAR-γ/β-actin (E), phospho-Akt/pan-Akt (F) and phospho-AMPK/pan-AMPK (G). […]

C2C12 cells = tested on: C2C12 cells; set-up: method as in Eid et al. [2010]; conditions: cultured C2C12 cells; ref Eid et al. [2010]; cited from earlier work
GLUT1 = experiment: Western immunoblot GLUT1 protein content in L6 myotubes; type: cell-based, rat; conditions: 50 μM, 18 h
Protocol: as §1
Figure 1. […] Cells were treated as previously described, cell surface GLUT4myc was detected by an enzyme-linked colorimetric assay. […] Results represent the means ± SEM of three independent experiments, and 3-4 cells were analyzed for each condition per experiment. *Indicates a significant (p ≤ 0.05) difference, **(p < 0.01) from the vehicle control group as assessed by ANOVA. […] Data are expressed as (D) phospho-AMPK/β-actin, (E) GLUT4/β-actin and (F) GLUT1/β-actin and are given as mean ± SEM from 3 experiments. *p < 0.05 indicates a significant difference, **(p < 0.01) from the vehicle control group.

SMILES | phosphorylation of Akt (Akt) | protein level of PPAR-γ (PPAR-γ) | glucose uptake (C2C12 cells) | effect on GLUT1 protein levels (GLUT1)
CCOC(=O)/C=C/c1ccc(O)c(O)c1 [CAEE, caffeic acid ethyl ester] | did not increase | significantly reduced | potently enhanced glucose uptake | no effect
COC(=O)/C=C/c1ccc(O)c(O)c1 [CAME, CA methyl ester] | did not increase | significantly reduced | potently enhanced glucose uptake | no effect
